Assay results from patent US20100136029A1, “Use of Tri-Substituted Glycerol Compounds for the Treatment of Hematological Malignancies” (UNIVERSITATSKLINIKUM HAMBURG-EPPENDORF, priority 2006, published 2010).
Entries after “also recorded” stand apart in the source; their conditions may differ.

Tests used:
[1] = test system: HL60 cells; experiment: Cytotoxicity (cell death) by 7-amino-actinomycin D staining and flow cytometry, HL60 cells
Method: (§1) The following cell lines were used: KMS-12-BM, K562, RPMI8226, OPM-2, NCI-H929, U266, and HL60. The cells were grown in 96-well tissue culture plates in a volume of 200 μl to a concentration of 1×10^6 cells/ml. Then, the cells were incubated for 20 h with 5 μg/ml, 10 μg/ml, and 20 μg/ml ET-18-OCH3 (final concentrations), respectively. Cell death was assessed by staining the cells with 7-amino-actinomycin D (final concentration 200 μg/ml) and analyzed via flow cytometry as described (see, e.g., Schmid, I. et al. (1994) J. Immunol. Meth. 170, 145-157; Ayuk, F. A. et al. (2005) Exp. Hematol. 33, 1531-1536).
(§2) The following human cell lines were used: • 1. KMS-12-BM (DMSZ no. ACC 551), bone marrow cells; myeloma/plasmacytoma; none of the genetic alterations defined herein; Chesi, M. et al. (2001), supra. • 2. K562 (ATCC no. CCL-243); bone marrow cells; CML; none of the genetic alterations defined herein; Delgado, M. D. et al. (2001), supra. • 3. […] OPM-2 (ATCC no. CRL-13007); lymphoblast cells; myeloma; t(4;14) chromosomal translocation; K650E FGFR3 gene mutation (AAG→GAG at codon 650); Chesi, M. et al. (2001), supra. • 5. NCI-H929 (ATCC no. CRL-9068); bone marrow cells; myeloma/plasmacytoma; t(4;14) chromosomal translocation; N13-G>D N-ras gene mutation (GGT→GAT at codon 13); Chesi, M. et al. (2001), supra. • 6. U266 (ATCC no. TIB-196); peripheral blood cells; myeloma/plasmacytoma; none of the genetic alterations defined herein; Chesi, M. et al. (2001), supra. • 7. HL60 (ATCC no. CCL-240); peripheral blood cells; AML; N61-Q>R N-ras gene mutation (CAA→CGA at codon 61); Bos, J. L. et al. (1984), supra. • 8. Jurkat (ATCC no. TIB-152); peripheral blood cells; ALL; 2 by deletion and 9 by insertion at codon 234 in exon 7 of the PTEN gene (resulting in downstream stop codons); Sakai, A. et al. (1998), supra.
(§3) The cells were grown in 96-well tissue culture plates in a volume of 200 μl to a concentration of 1×10^6 cells/ml. Then, the cells were incubated for 20 h with a final concentration of 5 μg/ml, 10 μg/ml, and 20 μg/ml 1-O-octadecyl-2-O-methyl-glycero-3-phosphocholine (ET-18-OCH3), respectively. Cell death was assessed by staining the cells with 7-amino-actinomycin D (Calbiochem, Darmstadt, Germany; final concentration 200 μg/ml) and analyzed via flow cytometry using a FACS-Scan flow cytometer (BD Biosciences, San Jose, Calif., USA) as described (see, e.g., Schmid, I. et al. (1994) J. Immunol. Meth. 170, 145-157; Ayuk, F. A. et al. (2005) Exp. Hematol. 33, 1531-1536).
(§4) The cells were again grown in 96-well tissue culture plates in a volume of 200 μl to a concentration of 1×10^6 cells/ml. Then, the cells were incubated for 20 h with the respective drugs. […] The cytotoxic effect of ET-18-OCH3 in combination with bortezomib was determined in Jurkat, HL60 cells, and RPMI8226 cell, whereas the cytotoxic effect of ET-18-OCH3 in combination with cytarabine, fludarabine and etoposide, respectively, in Jurkat and HL60 cells. Cell death was assessed as described in example 1.

[2] = test system: RPMI8226; experiment: Cytotoxicity (cell death) by 7-amino-actinomycin D staining and flow cytometry, RPMI8226 cells
Method: as §1, §2, §3, §4

[3] = test system: Jurkat cells; experiment: cells; settings: Homo sapiens, 20 h
Method: Cell culture was performed as described in FIG. 1. ET-18-OCH3 was added in a final concentration of 2.5 or 5.0 μg/ml (“E2.5” and “E5”, respectively) without or in combination with 5 or 10 ng/ml bortezomib (“Vel5” and “Vel10”, respectively), and the cells were incubated for 20 h. Cell death was assessed as described in FIG. 1. The results are expressed as mean±SEM of three independent experiments.
as §2, §3, §4

[4] = test system: K562; experiment: Cytotoxicity (cell death) by 7-amino-actinomycin D staining and flow cytometry, K562 cells; type: cell-based, human; settings: K562, 20 h, 5, 10 and 20 μg/ml ET-18-OCH3, FIG. 1
Description: (§5) The following human cell lines were used: • 1.

[5] = test system: U266 cells; experiment: Cytotoxicity (cell death) by 7-amino-actinomycin D staining and flow cytometry, U266 cells; type: cell-based, human; settings: U266, 20 h, 5, 10 and 20 μg/ml ET-18-OCH3, FIG. 1
Description: as §5

[6] = test system: OPM-2 cells; experiment: Cytotoxicity (cell death) by 7-amino-actinomycin D staining and flow cytometry, OPM-2 cells; type: cell-based
Description: as §5

[7] = test system: KMS-12-BM; experiment: Cytotoxicity (cell death) by 7-amino-actinomycin D staining and flow cytometry, KMS-12-BM cells; type: cell-based, human; settings: 20 h, 5, 10 and 20 μg/ml ET-18-OCH3, FIG. 1
Description: as §5

[8] = test system: NCI-H929; experiment: Cytotoxicity (cell death) by 7-amino-actinomycin D staining and flow cytometry, NCI-H929 cells; type: cell-based
Description: as §5

## CC(C)C[C@H](NC(=O)[C@H](Cc1ccccc1)NC(=O)c1cnccn1)B(O)O [Bortezomib, bortezomib]
[1]; Homo sapiens, HL-60, 20 h
  cytotoxicity at 0.005 µg/mL: 2.7 ± 1.9%
  cytotoxicity at 0.01 µg/mL: 10.9 ± 3.7%
[2]; Homo sapiens, RPMI-8226, 20 h
  cytotoxicity at 0.005 µg/mL: 7.3 ± 4.5%
  cytotoxicity at 0.01 µg/mL: 25.1 ± 4%
[3]
  cytotoxicity at 0.005 µg/mL: 0.4 ± 0.5%
  cytotoxicity at 0.01 µg/mL: 3.6 ± 1.4%

## Nc1ccn([C@@H]2O[C@H](CO)[C@@H](O)[C@@H]2O)c(=O)n1 [Cytarabine, cytarabine]
[1]; Homo sapiens, HL-60, 20 h
  cytotoxicity at 10 µM: 24 ± 2.8%
  cytotoxicity at 40 µM: 26.9 ± 5%
[3]
  cytotoxicity at 10 µM: 11.1 ± 0.5%
  cytotoxicity at 40 µM: 12.4 ± 1.2%

## CCCCCCCCCCCCCCCCCCOCC(COP(=O)([O-])OCC[N+](C)(C)C)OC (stereo not shown) [ET-18-OCH3, 1-O-octadecyl-2-O-methyl-glycero-3-phosphocholine]
[4]
  cytotoxic effect (cell death) in words: dose-dependent effect; also recorded: significantly reduced or even almost abolished
[1]
  cytotoxic effect, dose dependence: dose-dependent effect
[1]; HL60, 20 h, 20 μg/ml ET-18-OCH3, FIG. 1
  cell death in words: almost complete cell death
[1]; Homo sapiens, HL-60, 20 h
  cytotoxicity at 2.5 µg/mL: 11.3 ± 7.3%
  cytotoxicity at 5 µg/mL: 35 ± 15.9%
[5]
  cytotoxic effect (cell death) in words: do not respond to ET-18-OCH3 at all; also recorded: significantly reduced or even almost abolished
[2]; Homo sapiens, RPMI-8226, 20 h
  cytotoxicity at 2.5 µg/mL: 11.2 ± 8.1%
  cytotoxicity at 5 µg/mL: 34.7 ± 13.2%
[2]; RPMI8226, 20 h, 20 μg/ml ET-18-OCH3, FIG. 1
  cell death in words: almost complete cell death
[2]; RPMI8226, 20 h, 5, 10 and 20 μg/ml ET-18-OCH3, FIG. 1
  cytotoxic effect, dose dependence: dose-dependent effect
[6]; OPM-2, 20 h, 20 μg/ml ET-18-OCH3, FIG. 1
  cells died: about 75%
[6]; OPM-2, 20 h, 5, 10 and 20 μg/ml ET-18-OCH3, FIG. 1
  cytotoxic effect, dose dependence: dose-dependent effect
[7]
  cytotoxic effect (cell death) in words: significantly reduced or even almost abolished; also recorded: dose-dependent effect
[3]
  cytotoxicity at 2.5 µg/mL: 2.1 ± 1%
  cytotoxicity at 5 µg/mL: 13.1 ± 5.3%
[8]; NCI-H929, 20 h, 20 μg/ml ET-18-OCH3, FIG. 1
  cell death in words: almost complete cell death
[8]; NCI-H929, 20 h, 5, 10 and 20 μg/ml ET-18-OCH3, FIG. 1
  cytotoxic effect, dose dependence: dose-dependent effect

## COc1cc([C@@H]2c3cc4c(cc3[C@@H](O[C@@H]3O[C@@H]5CO[C@@H](C)O[C@H]5[C@H](O)[C@H]3O)[C@H]3COC(=O)[C@H]23)OCO4)cc(OC)c1O [Etoposide, etoposide]
[1]; Homo sapiens, HL-60, 20 h
  cytotoxicity at 1 µM: 4.1 ± 0.7%
  cytotoxicity at 2.5 µM: 10.7 ± 5.4%
  cytotoxicity at 5 µM: 23.3 ± 8.2%
[3]
  cytotoxicity at 1 µM: 5.9 ± 1.1%
  cytotoxicity at 2.5 µM: 10 ± 0.8%
  cytotoxicity at 5 µM: 16.8 ± 8.4%

## Nc1nc(F)nc2c1ncn2[C@@H]1O[C@H](CO)[C@@H](O)[C@@H]1O [Fludarabine, fludarabine]
[1]; Homo sapiens, HL-60, 20 h
  cytotoxicity at 10 µM: 13.8 ± 9.4%
  cytotoxicity at 50 µM: 37.2 ± 4.6%
[3]
  cytotoxicity at 10 µM: 2.4 ± 0.9%
  cytotoxicity at 50 µM: 6.2 ± 2.4%
